# Data as given in patent publication US20240189318A1, “THERAPEUTIC REGIMENS OF AN INHIBITOR OF THE ENZYMATIC ACTIVITY OF BRG1 AND BRM” (FOGHORN THERAPEUTICS INC., priority 2021, published 2024).
# Read-outs that look alike come from different tables or passages of the source.
# Columns and labels:
# [1] = target: T1, BCRP (Homo sapiens, UniProt Q9UNQ0); test: Bidirectional transport in MDCK-II cells expressing BCRP; format: in vitro ADME
# T1 construct: expressed in transfected cells; host or cells: MDCK-II
# T1 sequence (Q9UNQ0 1-655): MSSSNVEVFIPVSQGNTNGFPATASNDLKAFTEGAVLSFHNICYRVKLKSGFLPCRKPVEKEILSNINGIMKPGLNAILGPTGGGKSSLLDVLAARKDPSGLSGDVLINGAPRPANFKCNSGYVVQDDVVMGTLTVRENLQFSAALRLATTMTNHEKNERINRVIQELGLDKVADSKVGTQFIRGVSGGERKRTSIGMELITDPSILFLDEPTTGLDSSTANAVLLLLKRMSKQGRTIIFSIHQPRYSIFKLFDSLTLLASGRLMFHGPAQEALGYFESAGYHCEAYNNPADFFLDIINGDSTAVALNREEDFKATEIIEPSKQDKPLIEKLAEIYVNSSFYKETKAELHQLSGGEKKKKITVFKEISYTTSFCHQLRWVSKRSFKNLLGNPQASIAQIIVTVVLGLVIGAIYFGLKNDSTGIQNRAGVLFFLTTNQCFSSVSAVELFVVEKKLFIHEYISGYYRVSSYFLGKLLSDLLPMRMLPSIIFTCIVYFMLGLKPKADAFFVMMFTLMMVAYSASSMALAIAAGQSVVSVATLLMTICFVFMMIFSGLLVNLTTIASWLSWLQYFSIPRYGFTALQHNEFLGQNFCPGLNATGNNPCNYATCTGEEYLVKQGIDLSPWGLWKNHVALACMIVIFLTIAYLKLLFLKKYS
# [2] = target: T2, OATP1B3 (Homo sapiens, UniProt Q9NPD5); test: Transporter inhibition in MDCK-II cells, OATP1B3; format: in vitro ADME; details: probe CCK-8 2 μM
# T2 construct: expressed in transfected cells; host or cells: MDCK-II
# T2 sequence (Q9NPD5 whole entry): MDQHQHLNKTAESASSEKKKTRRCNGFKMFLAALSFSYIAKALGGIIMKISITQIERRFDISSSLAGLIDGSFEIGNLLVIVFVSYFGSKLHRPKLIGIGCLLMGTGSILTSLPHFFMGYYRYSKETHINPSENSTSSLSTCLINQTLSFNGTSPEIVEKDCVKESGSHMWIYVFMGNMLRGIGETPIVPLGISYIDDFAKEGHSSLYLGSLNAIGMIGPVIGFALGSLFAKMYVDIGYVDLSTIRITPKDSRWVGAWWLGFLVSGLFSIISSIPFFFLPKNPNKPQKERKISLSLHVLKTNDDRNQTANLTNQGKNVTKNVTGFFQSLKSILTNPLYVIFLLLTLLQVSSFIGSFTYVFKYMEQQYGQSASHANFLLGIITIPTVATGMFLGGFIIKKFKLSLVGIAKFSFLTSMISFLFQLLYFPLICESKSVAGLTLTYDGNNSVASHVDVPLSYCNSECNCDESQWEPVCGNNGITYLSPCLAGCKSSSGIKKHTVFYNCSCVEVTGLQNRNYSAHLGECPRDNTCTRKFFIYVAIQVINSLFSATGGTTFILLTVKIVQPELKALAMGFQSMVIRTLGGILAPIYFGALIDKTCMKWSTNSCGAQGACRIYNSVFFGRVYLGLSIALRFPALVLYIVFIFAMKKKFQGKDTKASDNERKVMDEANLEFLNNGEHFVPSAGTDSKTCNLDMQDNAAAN
# [3] = target: T1, BCRP; test: Transporter inhibition in MDCK-II cells, BCRP; format: in vitro ADME; details: for IC50: probe prazosin 2 μM
# [4] = target: T3, P-gp (Homo sapiens, UniProt P08183); test: Transporter inhibition in MDCK-II cells, P-gp; format: in vitro ADME; details: for IC50: probe quinidine 0.1 μM
# T3 construct: expressed in transfected cells; host or cells: MDCK-II
# T3 sequence (P08183 whole entry): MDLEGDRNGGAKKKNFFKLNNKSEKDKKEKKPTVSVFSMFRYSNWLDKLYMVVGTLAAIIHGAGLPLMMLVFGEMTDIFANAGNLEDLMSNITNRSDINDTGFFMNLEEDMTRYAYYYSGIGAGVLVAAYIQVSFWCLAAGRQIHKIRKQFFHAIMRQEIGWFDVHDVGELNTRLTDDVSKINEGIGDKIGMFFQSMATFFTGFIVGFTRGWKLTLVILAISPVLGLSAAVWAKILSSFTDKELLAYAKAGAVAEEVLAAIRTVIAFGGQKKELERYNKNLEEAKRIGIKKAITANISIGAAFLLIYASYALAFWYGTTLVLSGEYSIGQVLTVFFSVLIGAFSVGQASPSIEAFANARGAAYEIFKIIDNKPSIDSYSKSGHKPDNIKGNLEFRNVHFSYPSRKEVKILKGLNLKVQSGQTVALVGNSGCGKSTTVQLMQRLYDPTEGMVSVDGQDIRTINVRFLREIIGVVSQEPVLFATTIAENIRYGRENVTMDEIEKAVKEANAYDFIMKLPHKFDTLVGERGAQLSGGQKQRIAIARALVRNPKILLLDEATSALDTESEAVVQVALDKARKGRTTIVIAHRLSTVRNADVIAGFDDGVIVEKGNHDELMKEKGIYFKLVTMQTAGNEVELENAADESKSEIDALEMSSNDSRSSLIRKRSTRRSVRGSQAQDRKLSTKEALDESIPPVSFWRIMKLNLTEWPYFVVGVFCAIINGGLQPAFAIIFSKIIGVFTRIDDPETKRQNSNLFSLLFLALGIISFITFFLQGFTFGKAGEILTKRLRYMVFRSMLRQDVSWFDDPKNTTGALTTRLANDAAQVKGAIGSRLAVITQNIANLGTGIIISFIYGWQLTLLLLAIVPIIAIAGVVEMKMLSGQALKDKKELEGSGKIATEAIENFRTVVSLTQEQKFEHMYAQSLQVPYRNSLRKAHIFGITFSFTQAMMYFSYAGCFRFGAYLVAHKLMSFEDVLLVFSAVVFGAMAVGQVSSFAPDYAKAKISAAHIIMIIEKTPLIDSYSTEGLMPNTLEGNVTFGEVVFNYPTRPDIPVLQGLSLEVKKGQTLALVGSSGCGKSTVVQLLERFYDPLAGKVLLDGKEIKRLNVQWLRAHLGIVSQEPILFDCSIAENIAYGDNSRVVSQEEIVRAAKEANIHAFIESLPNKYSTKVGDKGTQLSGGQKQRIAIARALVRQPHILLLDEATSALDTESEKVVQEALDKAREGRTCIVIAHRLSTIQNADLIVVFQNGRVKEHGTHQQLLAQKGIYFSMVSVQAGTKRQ
# [5] = target: T4, 2C19 (Homo sapiens, UniProt P33261); test: Selective chemical inhibition of compound of formula (I) depletion in human liver microsomes, CYP2C19; format: in vitro ADME; details: reaction phenotyping
# T4 construct: from tissue; host or cells: human liver microsomes
# T4 sequence (P33261 whole entry): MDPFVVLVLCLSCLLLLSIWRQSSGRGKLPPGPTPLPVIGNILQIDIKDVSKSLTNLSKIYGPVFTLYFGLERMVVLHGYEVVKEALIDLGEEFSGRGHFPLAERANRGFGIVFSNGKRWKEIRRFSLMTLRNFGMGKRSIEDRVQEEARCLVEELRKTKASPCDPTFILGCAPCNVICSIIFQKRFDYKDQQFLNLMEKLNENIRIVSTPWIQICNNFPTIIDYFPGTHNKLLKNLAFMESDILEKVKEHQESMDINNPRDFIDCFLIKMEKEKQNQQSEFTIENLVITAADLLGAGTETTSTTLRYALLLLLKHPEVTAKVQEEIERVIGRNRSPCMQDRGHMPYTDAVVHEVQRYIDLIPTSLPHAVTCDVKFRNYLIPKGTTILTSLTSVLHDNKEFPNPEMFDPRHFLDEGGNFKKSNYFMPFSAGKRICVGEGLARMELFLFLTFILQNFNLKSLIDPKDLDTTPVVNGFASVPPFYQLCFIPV
# [6] = system: CYP3A4 mRNA; test: CYP mRNA level (qRT-PCR) in cultured human hepatocytes, CYP3A4; format: in vitro ADME; details: 72 hours
# [7] = target: CYP2C8 (Homo sapiens, UniProt P10632); test: Depletion by recombinant CYP enzyme, CYP2C8; format: in vitro ADME; set-up: from tissue; host or cells: pooled human liver microsomes; details: recombinant 2C8
# Chain of CYP2C8 (P10632 whole entry): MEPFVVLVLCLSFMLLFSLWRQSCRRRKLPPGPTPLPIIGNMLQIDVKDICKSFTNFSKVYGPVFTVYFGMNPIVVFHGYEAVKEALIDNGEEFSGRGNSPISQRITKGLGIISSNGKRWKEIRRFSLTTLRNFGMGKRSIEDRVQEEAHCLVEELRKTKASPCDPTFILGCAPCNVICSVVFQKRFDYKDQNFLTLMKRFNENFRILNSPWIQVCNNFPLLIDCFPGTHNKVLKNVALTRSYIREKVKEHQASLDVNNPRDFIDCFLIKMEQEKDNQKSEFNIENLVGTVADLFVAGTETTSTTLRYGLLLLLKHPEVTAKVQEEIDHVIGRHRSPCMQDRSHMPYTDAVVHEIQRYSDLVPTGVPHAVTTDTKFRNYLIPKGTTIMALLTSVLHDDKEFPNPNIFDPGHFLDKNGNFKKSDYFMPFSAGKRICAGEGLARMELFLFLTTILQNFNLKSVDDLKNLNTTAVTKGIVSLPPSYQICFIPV
# [8] = target: CYP2C9 (Homo sapiens, UniProt P11712); test: Depletion by recombinant CYP enzyme, CYP2C9; format: in vitro ADME; set-up: from tissue; host or cells: pooled human liver microsomes; details: recombinant 2C9
# Chain of CYP2C9 (P11712 whole entry): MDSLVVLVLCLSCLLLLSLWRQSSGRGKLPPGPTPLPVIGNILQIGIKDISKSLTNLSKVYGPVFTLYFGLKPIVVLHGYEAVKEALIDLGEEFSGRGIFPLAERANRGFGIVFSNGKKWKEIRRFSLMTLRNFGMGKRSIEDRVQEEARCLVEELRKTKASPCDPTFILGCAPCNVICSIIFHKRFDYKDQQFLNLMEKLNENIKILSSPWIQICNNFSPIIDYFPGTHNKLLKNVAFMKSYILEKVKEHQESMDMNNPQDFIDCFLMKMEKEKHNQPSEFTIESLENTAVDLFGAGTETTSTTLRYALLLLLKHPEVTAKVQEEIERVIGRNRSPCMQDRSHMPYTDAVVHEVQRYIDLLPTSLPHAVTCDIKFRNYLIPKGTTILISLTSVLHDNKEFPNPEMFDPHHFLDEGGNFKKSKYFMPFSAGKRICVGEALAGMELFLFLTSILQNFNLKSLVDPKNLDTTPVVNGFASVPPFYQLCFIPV
# [9] = target: CYP2C19 (Homo sapiens, UniProt P33261); test: Depletion by recombinant CYP enzyme, CYP2C19; format: in vitro ADME; set-up: from tissue; host or cells: pooled human liver microsomes; details: recombinant 2C19
# Chain of CYP2C19 (P33261 whole entry): as the sequence (P33261 whole entry) above
# [10] = target: T5, CYP2B6 (Homo sapiens, UniProt P20813); test: CYP enzyme inhibition in pooled human liver microsomes, CYP2B6; details: for inhibition at 30 µM: human, microsomes, Enzyme activity (% inhibition), CYP2B6, probe Efavirenz
# T5 sequence (P20813 1-491): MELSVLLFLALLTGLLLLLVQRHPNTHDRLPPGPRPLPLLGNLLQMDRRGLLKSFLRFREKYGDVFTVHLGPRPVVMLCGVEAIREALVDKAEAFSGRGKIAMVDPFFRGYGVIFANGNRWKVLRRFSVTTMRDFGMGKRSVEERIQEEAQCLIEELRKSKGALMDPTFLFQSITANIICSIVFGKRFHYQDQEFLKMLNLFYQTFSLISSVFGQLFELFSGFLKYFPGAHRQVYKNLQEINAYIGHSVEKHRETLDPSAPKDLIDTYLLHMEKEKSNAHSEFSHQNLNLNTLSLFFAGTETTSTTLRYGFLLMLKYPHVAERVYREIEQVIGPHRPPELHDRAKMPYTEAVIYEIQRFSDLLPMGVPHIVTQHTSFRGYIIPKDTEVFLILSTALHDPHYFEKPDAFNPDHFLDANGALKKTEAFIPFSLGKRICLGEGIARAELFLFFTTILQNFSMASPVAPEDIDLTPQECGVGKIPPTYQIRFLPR
# [11] = target: CYP2D6 (Homo sapiens, UniProt P10635); test: CYP enzyme inhibition in pooled human liver microsomes, CYP2D6; details: for inhibition at 30 µM: human, microsomes, Enzyme activity (% inhibition), CYP2D6, probe Dextromethorphan
# Chain of CYP2D6 (P10635 whole entry): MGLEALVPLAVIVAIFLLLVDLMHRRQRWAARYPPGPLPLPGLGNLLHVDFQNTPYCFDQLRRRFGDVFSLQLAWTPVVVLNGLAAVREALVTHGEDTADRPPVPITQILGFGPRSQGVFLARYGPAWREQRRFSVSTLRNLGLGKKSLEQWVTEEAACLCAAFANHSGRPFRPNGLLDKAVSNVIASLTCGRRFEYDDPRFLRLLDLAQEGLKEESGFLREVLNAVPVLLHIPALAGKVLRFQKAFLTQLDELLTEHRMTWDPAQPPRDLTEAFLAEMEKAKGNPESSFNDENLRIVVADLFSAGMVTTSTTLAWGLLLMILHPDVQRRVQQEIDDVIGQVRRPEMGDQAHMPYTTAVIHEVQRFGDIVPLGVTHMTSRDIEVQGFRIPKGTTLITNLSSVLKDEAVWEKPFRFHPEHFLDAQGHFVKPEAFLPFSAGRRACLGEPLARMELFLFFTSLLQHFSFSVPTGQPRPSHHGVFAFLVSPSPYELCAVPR
# [12] = system: 3A4/5; test: Selective chemical inhibition of compound of formula (I) depletion in human liver microsomes, CYP3A4/5; details: reaction phenotyping
# [13] = human, read-out: Papp A→B, in transporter cells
# [14] = human, read-out: Papp B→A, in transporter cells
# [15] = FDA guidance 2020, human dose of 300 mg
# [16] = PHLM, concentrations up to 30 μM
# [17] = 30 Minutes Pre-incubation with NADPH, PHLM
# [18] = 30 Minutes Pre-incubation without NADPH, PHLM
structure (smiles),measurement,setting,value
"COC[C@H](NC(=O)c1ccn(S(C)(=O)=O)c1)C(=O)Nc1nc(-c2cccc(N3C[C@@H](C)O[C@@H](C)C3)n2)cs1 [compound of formula (I), N-((S)-1-((4-(6-(cis-2,6-dimethylmorpholino)pyridin-2-yl)thiazol-2-yl)amino)-3-methoxy-1-oxopropan-2-yl)-1-(methylsulfonyl)-1H-pyrrole-3-carboxamide]",BCRP substrate status,[1]; MDCK-II cells expressing BCRP,substrate
same,Papp A→B at 1 μM,[1]; [13],6.15 ×10⁻⁶ cm/s
same,Papp A→B at 10 μM,[1]; [13],16.5 ×10⁻⁶ cm/s
same,Papp A→B at 50 μM,[1]; [13],22.4 ×10⁻⁶ cm/s
same,Papp B→A at 1 μM,[1]; [14],24.3 ×10⁻⁶ cm/s
same,Papp B→A at 10 μM,[1]; [14],25.2 ×10⁻⁶ cm/s
same,Papp B→A at 50 μM,[1]; [14],18.5 ×10⁻⁶ cm/s
same,IC50,"[2]; OATP1B3, corrected, read-out: IC50 corrected for non-specific binding",2.68 µM
same,IC50,"[2]; OATP1B3 in MDCK-II cells, read-out: Estimated IC50 using nominal concentrations",11.4 µM
same,IC50,"[3]; BCRP in MDCK-II cells, read-out: Estimated IC50 using nominal concentrations",10.1 µM
same,IC50,"[3]; BCRP, corrected, read-out: IC50 corrected for non-specific binding",2.38 µM
same,R-value for BCRP inhibition in the gut,[3]; [15],> 10
same,R-value for P-gp inhibition in the gut,[4]; [15],> 10
same,IC50,"[4]; P-gp in MDCK-II cells, read-out: Estimated IC50 using nominal concentrations",18.5 µM
same,IC50,"[4]; P-gp, corrected, read-out: IC50 corrected for non-specific binding",4.36 µM
same,role of CYP2C19 in metabolism in human liver microsomes,[5],possible involvement of CYP2C19 to a lesser extent
same,concentrations at which CYP3A4 mRNA expression was down-regulated (>50% decrease),[6],≥ 1 nM
same,% Remaining of Compound of Formula (I),[7]; 0.1 μM,81.0%
same,% Remaining of Compound of Formula (I),[7]; 1 μM,95.4%
same,% Remaining of Compound of Formula (I),[8]; 0.1 μM,79.9%
same,% Remaining of Compound of Formula (I),[8]; 1 μM,100%
same,% Remaining of Compound of Formula (I),[9]; 0.1 μM,80.5%
same,% Remaining of Compound of Formula (I),[9]; 1 μM,95.0%
same,IC50,[10],> 30 µM
same,direct inhibitory activity (% inhibition) toward CYP2B6,[10]; [16],< 50%
same,inhibition at 30 µM,[10]; [17],-10%
same,inhibition at 30 µM,[10]; [18],-6%
same,inhibition at 30 µM,"[10]; No Pre-incubation, PHLM",7.6%
same,IC50,[11],> 30 µM
same,direct inhibitory activity (% inhibition) toward CYP2D6,[11]; [16],< 50%
same,inhibition at 30 µM,[11]; [17],9.6%
same,inhibition at 30 µM,[11]; [18],11.5%
same,inhibition at 30 µM,"[11]; No Pre-incubation, PHLM",13.2%
same,role of CYP3A in metabolism in human liver microsomes,[12],major CYP enzyme responsible
